Laboratory results from EP3784230B1, “THE USE OF TERPENIC COUMARINE DERIVATIVE MOLECULES IN THE TREATMENT OF CANCER DISEASE” (T.C. Istanbul Medipol Universitesi, priority 2018, dated 2019).
Like-named read-outs stand apart in the source and are kept apart here.

Columns and labels:
UO31 cell line [1] = assay: Cytotoxic activity (IC50) on kidney cancer cell line UO31; assay type: cell-based; conditions: Homo sapiens, UO-31; U031 (kidney cancer cell line); read-out: Cytotoxic Activity ( IC 50 )
Description: (§1) The inventors have determined the cytotoxic activity (IC 50 values) of the compounds according to the invention together with various agents present in the prior art on cell lines of different types of cancer.
The UO31 cell line is known to be the kidney cancer cell line. Taxol, vinblastine and vincristine anti-cancer agents are used against the kidney cancer in the state of the art.

KM12 = assay: Cytotoxic activity (IC50) on cancer cell line KM12; assay type: cell-based; conditions: Homo sapiens, read-out: Cytotoxic Activity ( IC 50 )
Description: as §1

A498 = assay: Cytotoxic activity (IC50) on cancer cell line A498; assay type: cell-based; conditions: Homo sapiens, read-out: Cytotoxic Activity ( IC 50 )
Description: as §1

COLO205 = assay: Cytotoxic activity (IC50) on cancer cell line COLO205; assay type: cell-based; conditions: Homo sapiens, COLO 205, read-out: Cytotoxic Activity ( IC 50 )
Description: as §1

TC32 = assay: Cytotoxic activity (IC50) on cancer cell line TC32; assay type: cell-based; conditions: Homo sapiens, TC-32, read-out: Cytotoxic Activity ( IC 50 )
Description: as §1

A673 = assay: Cytotoxic activity (IC50) on cancer cell line A673; assay type: cell-based; conditions: Homo sapiens, read-out: Cytotoxic Activity ( IC 50 )
Description: as §1

UO31 cell line [2] = conditions: Ferguson R.E. et al., Int. J. Cancer 2005, 115, 155-163, read-out: IC 50 value; cited from earlier work

SMILES	IC50 (UO31 cell line [1]) [µM]	IC50 (KM12) [µM]	IC50 (A498) [µM]	IC50 (COLO205) [µM]	IC50 (TC32) [µM]	IC50 (A673) [µM]	IC50 (UO31 cell line [2]) [µM]
CC(C)=CCC/C(C)=C/CC/C(C)=C/COc1ccc2ccc(=O)oc2c1 [REFERENCE MOLECULE I]	1.8	> 50	> 50	> 50	> 50	> 50	–
C=C1CC[C@@H]2[C@](C)(CO)[C@H](O)CC[C@@]2(C)[C@@H]1COc1ccc2ccc(=O)oc2c1 [REFERENCE MOLECULE V]	> 50	> 50	> 50	> 50	> 50	> 50	–
CC[C@]1(O)C[C@@H]2CN(CCc3c([nH]c4ccccc34)[C@@](C(=O)OC)(c3cc4c(cc3OC)N(C)[C@H]3[C@@](O)(C(=O)OC)[C@H](OC(C)=O)[C@]5(CC)C=CCN6CC[C@]43[C@@H]65)C2)C1 [vinblastine]	–	–	–	–	–	–	> 100
C=C1CC[C@@H]2[C@](C)(COC(C)=O)[C@H](O)CC[C@@]2(C)[C@@H]1COc1ccc2ccc(=O)oc2c1 [EXAMPLE MOLECULE IV]	0.37	> 50	> 50	> 50	> 50	> 50	–
C/C(=C\COc1ccc2ccc(=O)oc2c1)CC/C=C(\C)CCC(O)C(C)(C)O (stereo not drawn) [REFERENCE MOLECULE II]	7.6	> 50	> 50	> 50	> 50	> 50	–
C=C1CC[C@@H]2C(C)(C)[C@H](O)CC[C@@]2(C)[C@@H]1COc1ccc2ccc(=O)oc2c1 [EXAMPLE MOLECULE I]	0.75	2.5	21	19	45	> 50	–
C=C1CC[C@@H]2C(C)(C)[C@@H](O)CC[C@@]2(C)[C@@H]1COc1ccc2ccc(=O)oc2c1 [EXAMPLE MOLECULE II]	0.38	9.1	20	> 50	> 50	> 50	–
C=C1CC[C@@H]2[C@](C)(C=O)[C@@H](O)CC[C@@]2(C)[C@@H]1COc1ccc2ccc(=O)oc2c1 [EXAMPLE MOLECULE V]	0.024	> 50	> 50	> 50	> 50	> 50	–
CC(=O)O[C@H]1C(=O)[C@@]2(C)[C@H]([C@H](OC(=O)c3ccccc3)[C@]3(O)C[C@H](OC(=O)[C@H](O)[C@@H](NC(=O)c4ccccc4)c4ccccc4)C(C)=C1C3(C)C)[C@]1(OC(C)=O)CO[C@@H]1C[C@@H]2O [taxol]	–	–	–	–	–	–	> 50
CC[C@]1(O)C[C@H]2CN(CCc3c([nH]c4ccccc34)[C@@](C(=O)OC)(c3cc4c(cc3OC)N(C=O)[C@H]3[C@@](O)(C(=O)OC)[C@H](OC(C)=O)[C@]5(CC)C=CCN6CC[C@]43[C@@H]65)C2)C1 [vincristine]	–	–	–	–	–	–	> 100
C=C1CC[C@H]2[C@@](C)(CCC(=O)[C@@]2(C)COC(C)=O)[C@@H]1COc1ccc2ccc(=O)oc2c1 [REFERENCE MOLECULE IV]	> 50	> 50	> 50	> 50	> 50	> 50	–
C=C1CC[C@@H]2C(C)(C)C(=O)CC[C@@]2(C)[C@@H]1COc1ccc2ccc(=O)oc2c1 [REFERENCE MOLECULE III]	11	> 50	> 50	> 50	> 50	> 50	–
C=C1CC[C@@H]2[C@](C)(COC(C)=O)[C@@H](O)CC[C@@]2(C)[C@@H]1COc1ccc2ccc(=O)oc2c1 [EXAMPLE MOLECULE III]	0.017	> 50	> 50	> 50	> 50	> 50	–
